According to patent US20230338337A1, “BIOMARKERS FOR CANCER THERAPY USING MDM2 ANTAGONISTS” (OTSUKA PHARMACEUTICAL CO., LTD., priority 2019, published 2023):
Where two headings read alike, the source gives them in different places.

Legend:
[1] = target: MDM2-p53 interaction (in vitro translated MDM2) (Homo sapiens (Human), UniProt Q00987); test: MDM2-p53 interaction 96-well plate binding assay (ELISA); conditions: for MDM2 % inhibition at 0.0010: at 0.0010 μM; for MDM2 % inhibition at 0.0030: at 0.0030 μM
[2] = test system: SJSA-1 (p53 wild-type, MDM2 amplified osteosarcoma); test: Protocol A: SRB growth inhibition assay; conditions: read-out: SJSA-1 IC50 (μM) (Protocol A)
SJSA-1 = test: Protocol B: CellTiter-Glo cell viability assay; conditions: Protocol B; for IC50: read-out: SJSA1 IC50 (μM) (Protocol B); for SJSA1 (Protocol B) % inhibition at 10: at 10 μM

Chain of MDM2-p53 interaction (in vitro translated MDM2) (Q00987 whole entry): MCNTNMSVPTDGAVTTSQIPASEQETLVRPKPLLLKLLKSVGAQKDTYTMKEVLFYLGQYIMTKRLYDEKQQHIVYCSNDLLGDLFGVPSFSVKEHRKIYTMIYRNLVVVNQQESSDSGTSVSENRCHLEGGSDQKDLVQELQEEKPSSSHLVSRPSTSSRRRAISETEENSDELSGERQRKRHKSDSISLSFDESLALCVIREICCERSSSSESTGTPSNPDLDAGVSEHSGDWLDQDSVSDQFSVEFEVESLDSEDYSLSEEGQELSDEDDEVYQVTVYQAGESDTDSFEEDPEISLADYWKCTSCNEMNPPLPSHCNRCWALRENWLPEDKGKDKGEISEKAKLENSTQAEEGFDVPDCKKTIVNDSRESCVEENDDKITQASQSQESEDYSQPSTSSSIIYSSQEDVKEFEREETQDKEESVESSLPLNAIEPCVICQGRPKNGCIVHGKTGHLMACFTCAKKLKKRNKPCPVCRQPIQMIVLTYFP

In the case of “(3R)-3-(4-chlorophenyl)-2-[(5-chloropyridin-2-yl)methyl]-4-fluoro-6-{1-hydroxy-1-[1-(2-hydroxyacetyl)piperidin-4-yl]ethyl}-3-methoxy-2,3-dihydro-1H-isoindol-1-one [Example 296]”, the “MDM2 % at concentration” value [1] is reported as 62%@0.0010 and the IC50 [2] is reported as 0.11 µM.

“2-{[(1R)-1-(4-chlorophenyl)-1-[(1-cyanocyclopropyl)methoxy]-7-fluoro-5-[1-(4-fluoro-1-methylpiperidin-4-yl)-1-hydroxypropyl]-3-oxo-2,3-dihydro-1H-isoindol-2-yl]methyl}pyrimidine-5-carbonitrile [Example 574]” was tested, and the “MDM2 % inhibition at 0.0010” value [1] was 45%@0.0010 and the IC50 [2] was 0.021 µM.

With “2-{[(1R)-1-(4-chlorophenyl)-7-fluoro-5-{1-hydroxy-1-[trans-4-hydroxycyclohexyl]propyl}-1-methoxy-3-oxo-2,3-dihydro-1H-isoindol-2-yl]methyl}pyrimidine-5-carbonitrile [Example 504]” the “MDM2 % inhibition at 0.0010” value [1] was 71%@0.0010 and the IC50 [2] was 0.039 µM.

“(3R)-6-[1-(1-acetylpiperidin-4-yl)-1-hydroxyethyl]-2-{[5-chloro-3-(hydroxymethyl)pyridin-2-yl]methyl}-3-(4-chlorophenyl)-4-fluoro-3-methoxy-2,3-dihydro-1H-isoindol-1-one [Example 424]” was tested, and the “MDM2 % inhibition at 0.0030” value [1] was 45%@0.0030 and the IC50 (SJSA-1) was 0.69 µM.

For “6-{[(1R)-1-(4-chlorophenyl)-7-fluoro-5-[1-(4-fluorooxan-4-yl)-1-hydroxypropyl]-1-[(2R)-2-hydroxypropoxy]-3-oxo-2,3-dihydro-1H-isoindol-2-yl]methyl}pyridine-3-carbonitrile [Example 498]”, the “MDM2 % inhibition at 0.10” value ([1]; at 0.10 μM) was 32%@0.10 and the “SJSA1 (Protocol B) % inhibition at 10” value (SJSA-1) was 96% at 10.

For “2-{[(1R)-1-(4-chlorophenyl)-7-fluoro-5-[1-(4-fluoropiperidin-4-yl)-1-hydroxypropyl]-3-oxo-1-[(3S)-oxolan-3-yloxy]-2,3-dihydro-1H-isoindol-2-yl]methyl}pyrimidine-5-carbonitrile [Example 547]”, the “MDM2 % inhibition at 0.0010” value [1] was 82%@0.0010 and the IC50 (SJSA-1) was 0.96 µM.

For “(3R)-3-(4-chlorophenyl)-2-[(3,5-difluoropyridin-2-yl)methyl]-4-fluoro-6-[1-hydroxy-1-(1-methyl-1H-pyrazol-4-yl)ethyl]-3-[(1-hydroxycyclopropyl)methoxy]-2,3-dihydro-1H-isoindol-1-one [Example 351]”, the “MDM2 % at concentration” value ([1]; at 0.10 μM) was 25%@0.10 and the IC50 (SJSA-1) was 4.3 µM.

With “2-{[(1R)-1-(4-chlorophenyl)-7-fluoro-5-[(1R)-1-(4-fluorooxan-4-yl)-1-hydroxypropyl]-3-oxo-1-[(3S)-oxolan-3-yloxy]-2,3-dihydro-1H-isoindol-2-yl]methyl}pyrimidine-5-carbonitrile [Example 507]” the “MDM2 % inhibition at 0.0030” value [1] was 65%@0.0030 and the IC50 (SJSA-1) was 0.02 µM.

With “(3R)-3-(4-chlorophenyl)-2-[(5-chloropyrimidin-2-yl)methyl]-4-fluoro-6-[1-(4-fluoropiperidin-4-yl)-1-hydroxypropyl]-3-[(2R)-2-hydroxypropoxy]-2,3-dihydro-1H-isoindol-1-one [Example 543]” the “MDM2 % inhibition at 0.0010” value [1] was 68%@0.0010 and the IC50 (SJSA-1) was 0.69 µM.

In the case of “6-{[(1R)-1-(4-chlorophenyl)-7-fluoro-5-[1-hydroxy-1-(1-methyl-1H-pyrazol-4-yl)propyl]-3-oxo-1-[(3S)-oxolan-3-yloxy]-2,3-dihydro-1H-isoindol-2-yl]methyl}pyridine-3-carbonitrile [Example 359]”, the “MDM2 % at concentration” value ([1]; at 0.10 μM) is reported as 50%@0.10 and the IC50 (SJSA-1) is reported as 3.9 µM.

In the case of “6-{[(1R)-1-(4-chlorophenyl)-7-fluoro-5-[1-(4-fluorooxan-4-yl)-1-hydroxypropyl]-1-(2-hydroxyethoxy)-3-oxo-2,3-dihydro-1H-isoindol-2-yl]methyl}pyridine-3-carbonitrile [Example 499]”, the “MDM2 % inhibition at 0.0010” value [1] is reported as 68%@0.0010 and the IC50 (SJSA-1) is reported as 0.053 µM.

With “6-{[(1R)-1-(4-chlorophenyl)-7-fluoro-3-oxo-1-[(3S)-oxolan-3-yloxy]-5-[2,2,2-trifluoro-1-hydroxy-1-(1-methyl-1H-pyrazol-4-yl)ethyl]-2,3-dihydro-1H-isoindol-2-yl]methyl}pyridine-3-carbonitrile [Example 371]” the “MDM2 % inhibition at 0.030” value ([1]; at 0.030 μM) was 43%@0.030 and the IC50 (SJSA-1) was 2.3 µM.

“(3R)-3-(4-chlorophenyl)-2-[(5-chloropyrimidin-2-yl)methyl]-4-fluoro-6-[1-(4-fluoropiperidin-4-yl)-1-hydroxypropyl]-3-[(3S)-oxolan-3-yloxy]-2,3-dihydro-1H-isoindol-1-one [Example 540]” was tested, and the “MDM2 % inhibition at 0.030” value ([1]; at 0.030 μM) was 33%@0.030 and the IC50 (SJSA-1) was 1.8 µM.

For “(2S)-3-{[(1R)-1-(4-Chlorophenyl)-2-[(5-chloropyridin-2-yl)methyl]-7-fluoro-5-(2-hydroxypropan-2-yl)-3-oxo-2,3-dihydro-1H-isoindol-1-yl]oxy}-2-methylpropanamide [Example 167]”, the IC50 [2] was 0.64 µM.

“(3R)-3-(4-chlorophenyl)-2-[(5-chloropyrimidin-2-yl)methyl]-4-fluoro-6-{1-hydroxy-1-[trans-4-hydroxycyclohexyl]propyl}-3-(2-hydroxyethoxy)-2,3-dihydro-1H-isoindol-1-one [Example 519]” was tested, and the “MDM2 % inhibition at 0.030” value ([1]; at 0.030 μM) was 35%@0.030 and the IC50 (SJSA-1) was 1.9 µM.

For “(3R)-3-(4-chlorophenyl)-2-[(5-chloropyridin-2-yl)methyl]-4-fluoro-6-[1-hydroxy-1-(1-methylpiperidin-4-yl)ethyl]-3-{[1-(hydroxymethyl)cyclopropyl]methoxy}-2,3-dihydro-1H-isoindol-1-one [Example 555]”, the “MDM2 % inhibition at 0.0010” value [1] was 55%@0.0010 and the IC50 (SJSA-1) was 0.079 µM.

With “(3R)-3-(4-chlorophenyl)-2-[(5-chloropyrimidin-2-yl)methyl]-4-fluoro-6-[1-hydroxy-1-(1-methyl-1H-imidazol-4-yl)propyl]-3-[(3S)-oxolan-3-yloxy]-2,3-dihydro-1H-isoindol-1-one [Example 474]” the “MDM2 % inhibition at 0.030” value ([1]; at 0.030 μM) was 38%@0.030 and the IC50 (SJSA-1) was 1.3 µM.

“2-{[(1R)-1-(4-chlorophenyl)-7-fluoro-5-[1-hydroxy-1-(1-methyl-1H-imidazol-4-yl)propyl]-3-oxo-1-{[trans-3-hydroxycyclobutyl]methoxy}-2,3-dihydro-1H-isoindol-2-yl]methyl}pyrimidine-5-carbonitrile [Example 483]” was tested, and the “MDM2 % inhibition at 0.0010” value [1] was 58%@0.0010 and the IC50 (SJSA-1) was 0.2 µM.

With “(3R)-3-(4-chlorophenyl)-2-[(5-chloropyridin-2-yl)methyl]-4-fluoro-6-[1-hydroxy-1-(4-methyl-1H-imidazol-2-yl)ethyl]-3-[(1-hydroxycyclopropyl)methoxy]-2,3-dihydro-1H-isoindol-1-one [Example 332]” the “MDM2 % at concentration” value ([1]; at 0.030 μM) was 60%@0.030 and the IC50 (SJSA-1) was 2.6 µM.

With “(3R)-3-(4-chlorophenyl)-2-[(3,5-difluoropyridin-2-yl)methyl]-4-fluoro-6-[1-hydroxy-1-(1-methyl-1H-pyrazol-4-yl)ethyl]-3-[(1-hydroxycyclopropyl)methoxy]-2,3-dihydro-1H-isoindol-1-one [Example 350]” the “MDM2 % at concentration” value ([1]; at 0.030 μM) was 54%@0.030 and the IC50 (SJSA-1) was 0.51 µM.

In the case of “(3R)-3-(4-chlorophenyl)-2-[(5-chloropyridin-2-yl)methyl]-4-fluoro-3-[(1-{[(2-hydroxyethyl)amino]methyl}cyclopropyl)methoxy]-6-(2-hydroxypropan-2-yl)-2,3-dihydro-1H-isoindol-1-one [Example 326]”, the “MDM2 % at concentration” value ([1]; at 0.030 μM) is reported as 50%@0.030 and the IC50 (SJSA-1) is reported as 2 µM.

In the case of “6-{[(1R)-1-(4-chlorophenyl)-7-fluoro-5-[1-(4-fluorooxan-4-yl)-1-hydroxypropyl]-1-(2-hydroxyethoxy)-3-oxo-2,3-dihydro-1H-isoindol-2-yl]methyl}pyridine-3-carbonitrile [Example 500]”, the “MDM2 % inhibition at 0.10” value ([1]; at 0.10 μM) is reported as 21%@0.10 and the “SJSA1 (Protocol B) % inhibition at 10” value (SJSA-1) is reported as 16% at 10.

With “2-{[(1R)-1-(4-chlorophenyl)-7-fluoro-5-[(1S)-1-(4-fluorooxan-4-yl)-1-hydroxypropyl]-3-oxo-1-[cis-3-hydroxycyclobutoxy]-2,3-dihydro-1H-isoindol-2-yl]methyl}pyrimidine-5-carbonitrile [Example 506]” the “MDM2 % inhibition at 0.030” value ([1]; at 0.030 μM) was 36%@0.030 and the IC50 (SJSA-1) was 3.4 µM.

For “6-{[(1R)-1-(4-chlorophenyl)-7-fluoro-5-[1-hydroxy-1-(1-methyl-1H-imidazol-4-yl)butyl]-3-oxo-1-[(3S)-oxolan-3-yloxy]-2,3-dihydro-1H-isoindol-2-yl]methyl}pyridine-3-carbonitrile [Example 472]”, the “MDM2 % inhibition at 0.0030” value [1] was 48%@0.0030 and the IC50 (SJSA-1) was 0.39 µM.

For “5-{[(1R)-1-(4-chlorophenyl)-7-fluoro-5-[1-hydroxy-1-(1-methyl-1H-imidazol-4-yl)propyl]-3-oxo-1-[(3S)-oxolan-3-yloxy]-2,3-dihydro-1H-isoindol-2-yl]methyl}pyridine-2-carbonitrile [Example 432]”, the “MDM2 % inhibition at 0.030” value ([1]; at 0.030 μM) was 45%@0.030 and the IC50 (SJSA-1) was 6.2 µM.

In the case of “6-{[(1R)-1-(4-chlorophenyl)-7-fluoro-5-{1-hydroxy-1-[trans-4-hydroxycyclohexyl]propyl}-3-oxo-1-[cis-3-hydroxycyclobutoxy]-2,3-dihydro-1H-isoindol-2-yl]methyl}pyridine-3-carbonitrile [Example 520]”, the “MDM2 % inhibition at 0.030” value ([1]; at 0.030 μM) is reported as 32%@0.030 and the IC50 (SJSA-1) is reported as 3.9 µM.

For “(3R)-3-(4-chlorophenyl)-2-[(5-chloropyrimidin-2-yl)methyl]-4-fluoro-3-[(3-fluorooxetan-3-yl)methoxy]-6-[2-hydroxy-1-(piperazin-1-yl)butan-2-yl]-2,3-dihydro-1H-isoindol-1-one [Example 539]”, the “MDM2 % inhibition at 0.0010” value [1] was 41%@0.0010 and the IC50 (SJSA-1) was 0.092 µM.

“(3R)-3-(4-chlorophenyl)-2-[(5-chloropyrimidin-2-yl)methyl]-4-fluoro-6-[1-hydroxy-1-(1-methyl-1H-imidazol-4-yl)propyl]-3-{[1-(hydroxymethyl)cyclopropyl]methoxy}-2,3-dihydro-1H-isoindol-1-one [Example 476]” was tested, and the “MDM2 % inhibition at 0.030” value ([1]; at 0.030 μM) was 51%@0.030 and the IC50 (SJSA-1) was 0.6 µM.
